Results reported in patent publication US20250250303A1 (THE TRUSTEES OF COLUMBIA UNIVERSITY IN THE CITY OF NEW YORK, priority 2022, published 2025).
Bridge positions count the residues as written; N and C are the ends. Peptide text beside a SMILES is read from it.

Tests used:
IR R14A = molecular target: T1, IR R14A (Homo sapiens, UniProt P06213, R41A); test: IR activation assay in 293 FT cells, IR R14A mutant; format: cell-based; conditions: 10 min
T1 construct: expressed in transfected cells; host or cells: 293 FT cells

IR D707A = IR D707A (Homo sapiens, UniProt P06213, D734A); test: IR activation assay in 293 FT cells, IR D707A mutant; format: cell-based; set-up: expressed in transfected cells; host or cells: 293 FT cells; conditions: 10 min
IR D496K = molecular target: T2, IR D496K (Homo sapiens, UniProt P06213, D523K); test: IR activation assay in 293 FT cells, IR D496K mutant; format: cell-based; conditions: 10 min
T2 construct: expressed in transfected cells; host or cells: 293 FT cells

IR E697A = molecular target: T3, IR E697A (Homo sapiens, UniProt P06213, E724A); test: IR activation assay in 293 FT cells, IR E697A mutant; format: cell-based; conditions: 10 nM for 10 min
T3 construct: expressed in transfected cells; host or cells: 293 FT cells

IR F497A = molecular target: T4, IR F497A (Homo sapiens, UniProt P06213, F524A); test: IR activation assay in 293 FT cells, IR F497A mutant; format: cell-based; conditions: 10 min
T4 construct: expressed in transfected cells; host or cells: 293 FT cells

CAL33 [1] = test: Cancer cell proliferation, CAL33; format: cell-based
IR R14W = molecular target: T5, IR R14W (Homo sapiens, UniProt P06213, R41W); test: IR activation assay in 293 FT cells, IR R14W mutant; format: cell-based; conditions: 10 min
T5 construct: expressed in transfected cells; host or cells: 293 FT cells

IR wild-type (WT) = molecular target: T6, IR wild-type (WT) (Homo sapiens, UniProt P06213); test: IR activation (auto-phosphorylation) assay in 293 FT cells expressing IR WT; format: cell-based
T6 construct: expressed in transfected cells; host or cells: 293 FT cells
Protocol: The insulin receptor signaling assay was performed as described earlier with some modifications. For the activation assay, the short isoform of human IR in pCS2-MYC was used as described previously. Plasmid transfections into 293 FT cells were performed with Lipofectamin™ 2000 (Invitrogen).
The cells were incubated with the lysis buffer B [50 mM Hepes pH 7.4, 150 mM NaCl, 10% Glycerol, 1% Triton X-100, 1 mM EDTA, 100 mM sodium fluoride, 2 mM sodium orthovanadate, 20 mM sodium pyrophosphate, 0.5 mM dithiothreitol (DTT), 2 mM phenylmethylsulfonyl fluoride (PMSF)] supplemented with complete Protease Inhibitor Cocktail (Roche), PhosSTOP (Sigma), and 25 U/ml turbo nuclease (Accelagen) on ice for 1 hr. After centrifuge at 20,817 g at 4° C. for 10 min, the concentrations of cell lysate were measured using Micro BCA Protein Assay Kit (Thermo Scientific). About 50-60 μg total proteins were analyzed by SDS-PAGE and quantitative Western blotting. The following antibodies were purchased from commercial sources: Anti-IR-pY1150/1151 (WB, 1:1000; 19H6; labeled as pY IR, Cat. #3024), anti-AKT (WB, 1:1000; 40D4, Cat. #2920), anti-pS473 AKT (WB, 1:1000; D9E, Cat. #4060), anti-ERK1/2 (WB, 1:1000; L34F12, Cat. #4696), anti-pERK1/2 (WB, […]; 197G2, Cat. #4377), anti-IRS1-pS616 (WB, 1:1000; C15H5, Cell Signaling, Cat. #3203); anti-IRS1 (WB, 1:1000; A301-158A, Bethyl Laboratory); anti-IR (WB, 1:500, CT-3, Santa Cruz; labeled as IR for primary hepatocytes and MEFs, Cat. #sc-57342); anti-IR (WB, 1:1000; EPR23566-103; labeled as IR for FIG. 31, ab278100, Abcam); anti-Myc (WB, 1:2000; 9E10, Cat. #11667149001, Roche; labeled as IR for 293 FT cells). For quantitative western blots, anti-rabbit immunoglobulin G (IgG) (H+L) (WB, 1:5000; Dylight 800 conjugates, Cat. #5151) and anti-mouse IgG (H+L) (WB, 1:5000; Dylight 680 conjugates, Cat. #5470) (Cell Signaling) were used as secondary antibodies. The membranes were scanned with the Odyssey Infrared Imaging System (Li—COR, Lincoln, NE).

MCF7 = test: Cancer cell proliferation, MCF7; format: cell-based
C2C12 cells = test: MTT assay in C2C12 cells; format: cell-based
Protocol: To examine the function of […] on cell viability and growth, an MTT assay was performed in C2C12 cells.

IR = IR (Mus musculus, UniProt P15208); test: Insulin receptor endocytosis in vivo (liver sections); set-up: from tissue; host or cells: liver of C57BL/6J mice; species or system mice
Protocol: For IR endocytosis assays, the livers were fixed in 10% Neutral Buffered Formalin (NBF) and embedded in paraffin blocks. Sections were deparaffinized, subjected to immunohistochemistry as described in the immunohistochemistry section and previous study.
The immunohistochemistry was performed as described earlier with some modifications. Mouse tissues were fixed in 10% NBF and embedded in paraffin blocks by the Molecular Pathology Core at Columbia University. The deparaffinized sections were subjected to antigen retrieval with 10 mM sodium citrate (pH 6.0), incubated with 0.3% H2O2, blocked with 3% bovine serum albumin (BSA), and then incubated with anti-IR antibodies (CT-3, Millipore, Cat. #MABS65, 1:100) in 3% BSA in PBS with 0.1% Triton X-100 (0.1% PBST) at 4° C. overnight. The slides were washed and incubated with secondary antibodies (Alexa Fluor 568 donkey anti-mouse, Invitrogen, Cat. #A10037, 1:200). The washed slides were stained with 4′,6′-diamidino-2-phenylindole (DAPI). Ten images were randomly taken under x60 magnification with a Leica Thunder Imager (Leica Microsystems Inc.). Images of sections were acquired as series of 0.2 μm stacks. The cell edges were defined with Image J as described earlier. The whole cell signal intensity (WC) and intracell cellular intensity (IC) were measured. The plasma membrane signal intensity (PM) was calculated by subtracting IC from WC. […]

IR F701A/F705A = molecular target: T7, IR F701A/F705A (Homo sapiens, UniProt P06213, F728A/F732A); test: IR activation assay in 293 FT cells, IR F701A/F705A mutant; format: cell-based; conditions: 10 min
T7 construct: expressed in transfected cells; host or cells: 293 FT cells

CAL33 [2] = test: IR signaling in cancer cells, CAL33; format: cell-based; conditions: 10, 100 or 300 nM for 10 minutes
[3] = format: in vivo, mice; conditions: 50 U/kg once daily for three days; 2 g glucose/kg after 6 hr. fast
Protocol: For oral glucose tolerance test, mice were fasted for 6 hr. and their blood glucose levels (T=0) were measured with tail bleeding using a glucometer (AlphaTRAK). After then, glucose (2 g/kg body weight) was administered by oral gavage. Blood glucose levels were measured at the indicated time points after glucose administration. For FIG. 31F, 2 months old male mice were fasted for 14 hr. […] One hour later livers were collected.

T6 sequence (P06213 28-1370 isoform P06213-2 limits assumed): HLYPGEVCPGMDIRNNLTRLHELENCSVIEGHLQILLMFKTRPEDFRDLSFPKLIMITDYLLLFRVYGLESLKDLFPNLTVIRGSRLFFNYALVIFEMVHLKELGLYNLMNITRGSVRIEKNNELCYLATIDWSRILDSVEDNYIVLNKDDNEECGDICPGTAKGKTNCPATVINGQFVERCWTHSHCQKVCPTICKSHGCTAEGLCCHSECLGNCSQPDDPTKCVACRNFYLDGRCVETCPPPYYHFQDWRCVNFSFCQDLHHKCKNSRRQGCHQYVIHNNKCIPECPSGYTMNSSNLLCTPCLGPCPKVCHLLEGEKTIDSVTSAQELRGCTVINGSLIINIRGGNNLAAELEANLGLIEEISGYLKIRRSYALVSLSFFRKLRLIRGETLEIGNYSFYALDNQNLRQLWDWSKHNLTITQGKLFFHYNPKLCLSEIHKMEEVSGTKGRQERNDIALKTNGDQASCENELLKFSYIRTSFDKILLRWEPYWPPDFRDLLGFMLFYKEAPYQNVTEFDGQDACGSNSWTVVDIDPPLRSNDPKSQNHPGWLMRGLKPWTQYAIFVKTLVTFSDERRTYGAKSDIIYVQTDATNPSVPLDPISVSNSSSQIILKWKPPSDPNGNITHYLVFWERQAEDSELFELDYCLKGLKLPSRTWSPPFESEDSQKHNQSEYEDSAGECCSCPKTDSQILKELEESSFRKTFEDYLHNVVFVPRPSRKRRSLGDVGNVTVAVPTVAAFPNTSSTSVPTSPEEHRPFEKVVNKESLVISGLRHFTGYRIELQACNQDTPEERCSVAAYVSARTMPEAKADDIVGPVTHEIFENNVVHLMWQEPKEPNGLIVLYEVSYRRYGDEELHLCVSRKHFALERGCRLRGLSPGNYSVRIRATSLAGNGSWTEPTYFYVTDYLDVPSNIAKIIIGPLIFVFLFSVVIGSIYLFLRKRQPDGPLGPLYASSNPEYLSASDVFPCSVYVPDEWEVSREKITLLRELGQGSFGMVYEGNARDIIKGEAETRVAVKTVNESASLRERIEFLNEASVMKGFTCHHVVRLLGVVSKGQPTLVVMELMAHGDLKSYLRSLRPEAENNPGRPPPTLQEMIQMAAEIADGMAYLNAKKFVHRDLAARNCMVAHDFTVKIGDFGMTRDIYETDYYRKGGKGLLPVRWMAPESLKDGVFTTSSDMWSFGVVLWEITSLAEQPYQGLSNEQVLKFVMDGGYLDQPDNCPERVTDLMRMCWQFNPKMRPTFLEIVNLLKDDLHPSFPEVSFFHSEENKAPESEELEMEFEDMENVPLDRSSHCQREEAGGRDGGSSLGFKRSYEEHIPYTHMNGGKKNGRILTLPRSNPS
T6 sequence (P06213 763-1382 partner limits assumed): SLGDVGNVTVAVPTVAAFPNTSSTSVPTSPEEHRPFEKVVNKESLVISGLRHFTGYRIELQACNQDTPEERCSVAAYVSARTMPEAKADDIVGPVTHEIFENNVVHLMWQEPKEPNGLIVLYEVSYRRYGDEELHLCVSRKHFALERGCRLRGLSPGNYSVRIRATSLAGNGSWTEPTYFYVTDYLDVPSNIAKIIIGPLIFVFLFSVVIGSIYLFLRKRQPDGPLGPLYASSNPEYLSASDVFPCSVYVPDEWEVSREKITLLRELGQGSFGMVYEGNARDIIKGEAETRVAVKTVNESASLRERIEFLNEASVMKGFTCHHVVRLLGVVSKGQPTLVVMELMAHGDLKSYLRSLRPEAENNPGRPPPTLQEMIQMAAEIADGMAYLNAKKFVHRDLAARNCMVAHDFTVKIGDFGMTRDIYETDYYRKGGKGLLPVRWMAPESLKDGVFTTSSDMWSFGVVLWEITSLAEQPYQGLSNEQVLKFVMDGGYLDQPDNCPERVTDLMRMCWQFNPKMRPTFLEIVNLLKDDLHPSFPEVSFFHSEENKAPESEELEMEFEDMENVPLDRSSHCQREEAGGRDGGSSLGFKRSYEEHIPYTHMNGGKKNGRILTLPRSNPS
T2 sequence (P06213 28-1370 isoform P06213-2 D523K limits assumed): as the sequence (P06213 28-1370 isoform P06213-2 limits assumed) above, with D496K counted along it
T2 sequence (P06213 763-1382 partner limits assumed): as the sequence (P06213 763-1382 partner limits assumed) above
Sequence of IR D707A (P06213 28-1370 isoform P06213-2 D734A limits assumed): as the sequence (P06213 28-1370 isoform P06213-2 limits assumed) above, with D707A counted along it
Sequence of IR D707A (P06213 763-1382 partner limits assumed): as the sequence (P06213 763-1382 partner limits assumed) above
T5 sequence (P06213 28-1370 isoform P06213-2 R41W limits assumed): as the sequence (P06213 28-1370 isoform P06213-2 limits assumed) above, with R14W counted along it
T5 sequence (P06213 763-1382 partner limits assumed): as the sequence (P06213 763-1382 partner limits assumed) above
T1 sequence (P06213 28-1370 isoform P06213-2 R41A limits assumed): as the sequence (P06213 28-1370 isoform P06213-2 limits assumed) above, with R14A counted along it
T1 sequence (P06213 763-1382 partner limits assumed): as the sequence (P06213 763-1382 partner limits assumed) above
T3 sequence (P06213 28-1370 isoform P06213-2 E724A limits assumed): as the sequence (P06213 28-1370 isoform P06213-2 limits assumed) above, with E697A counted along it
T3 sequence (P06213 763-1382 partner limits assumed): as the sequence (P06213 763-1382 partner limits assumed) above
T4 sequence (P06213 28-1370 isoform P06213-2 F524A limits assumed): as the sequence (P06213 28-1370 isoform P06213-2 limits assumed) above, with F497A counted along it
T4 sequence (P06213 763-1382 partner limits assumed): as the sequence (P06213 763-1382 partner limits assumed) above
Sequence of IR (P15208 28-748 limits assumed): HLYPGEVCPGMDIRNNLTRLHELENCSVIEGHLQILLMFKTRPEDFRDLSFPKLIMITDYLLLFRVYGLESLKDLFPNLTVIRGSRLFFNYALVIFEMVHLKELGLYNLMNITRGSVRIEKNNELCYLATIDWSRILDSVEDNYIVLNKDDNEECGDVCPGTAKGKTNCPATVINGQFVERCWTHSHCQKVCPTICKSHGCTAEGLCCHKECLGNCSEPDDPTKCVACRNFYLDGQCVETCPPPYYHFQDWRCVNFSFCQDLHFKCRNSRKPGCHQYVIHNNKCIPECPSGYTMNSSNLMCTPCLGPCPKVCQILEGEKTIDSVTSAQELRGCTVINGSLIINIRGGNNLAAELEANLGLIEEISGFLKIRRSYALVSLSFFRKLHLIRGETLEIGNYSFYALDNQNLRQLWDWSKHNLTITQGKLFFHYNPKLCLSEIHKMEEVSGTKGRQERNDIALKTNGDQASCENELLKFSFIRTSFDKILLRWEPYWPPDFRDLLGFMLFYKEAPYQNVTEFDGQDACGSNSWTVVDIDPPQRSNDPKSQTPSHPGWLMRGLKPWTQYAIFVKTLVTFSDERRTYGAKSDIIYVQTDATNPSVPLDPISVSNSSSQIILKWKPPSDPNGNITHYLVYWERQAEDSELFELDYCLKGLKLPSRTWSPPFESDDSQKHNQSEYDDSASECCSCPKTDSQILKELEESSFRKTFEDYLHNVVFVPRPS
Sequence of IR (P15208 753-1372 partner limits assumed): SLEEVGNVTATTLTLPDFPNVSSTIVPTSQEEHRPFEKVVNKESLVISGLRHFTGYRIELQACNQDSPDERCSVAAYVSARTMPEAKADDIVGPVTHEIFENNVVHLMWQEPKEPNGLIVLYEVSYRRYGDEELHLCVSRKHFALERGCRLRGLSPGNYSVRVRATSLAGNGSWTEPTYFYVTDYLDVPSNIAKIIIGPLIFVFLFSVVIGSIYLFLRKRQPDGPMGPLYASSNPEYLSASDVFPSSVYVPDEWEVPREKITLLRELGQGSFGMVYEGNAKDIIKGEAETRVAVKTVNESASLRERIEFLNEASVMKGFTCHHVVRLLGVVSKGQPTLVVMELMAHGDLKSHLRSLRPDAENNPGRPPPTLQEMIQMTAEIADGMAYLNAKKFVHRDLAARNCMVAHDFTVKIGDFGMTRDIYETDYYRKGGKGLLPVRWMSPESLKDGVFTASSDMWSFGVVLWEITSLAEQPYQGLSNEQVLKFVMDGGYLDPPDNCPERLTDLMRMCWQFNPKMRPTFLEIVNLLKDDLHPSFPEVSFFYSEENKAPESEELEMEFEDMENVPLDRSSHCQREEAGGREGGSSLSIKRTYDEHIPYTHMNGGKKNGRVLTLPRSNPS
T7 sequence (P06213 28-1370 isoform P06213-2 F728A/F732A limits assumed): as the sequence (P06213 28-1370 isoform P06213-2 limits assumed) above, with F701A, F705A counted along it
T7 sequence (P06213 763-1382 partner limits assumed): as the sequence (P06213 763-1382 partner limits assumed) above

## CC[C@H](C)[C@H](NC(=O)[C@H](CCC(N)=O)NC(=O)[C@H](C)NC(=O)[C@H](Cc1c[nH]c2ccccc12)NC(=O)[C@H](CCC(=O)O)NC(=O)[C@H](CCC(=O)O)NC(=O)[C@H](CCC(=O)O)NC(=O)[C@H](CC(C)C)NC(=O)[C@H](CO)NC(C)=O)C(=O)N[C@@H](CCC(=O)O)C(=O)N[C@H]1CSSC[C@@H](C(=O)N2CCC[C@H]2C(=O)N[C@@H](CO)C(=O)N[C@@H](CCC(=O)O)C(=O)N[C@@H](CO)C(=O)N[C@@H](Cc2ccccc2)C(=O)N[C@@H](Cc2ccc(O)cc2)C(=O)N[C@@H](CC(=O)O)C(=O)N[C@@H](Cc2c[nH]c3ccccc23)C(=O)N[C@@H](Cc2ccccc2)C(=O)N[C@@H](CCC(=O)O)C(=O)N[C@@H](CCCNC(=N)N)C(=O)N[C@@H](CCC(N)=O)C(=O)N[C@@H](CC(C)C)C(N)=O)NC(=O)CNC(=O)[C@H](CCCNC(=N)N)NC(=O)CNC(=O)[C@H](Cc2ccc(O)cc2)NC(=O)[C@H](C(C)C)NC(=O)[C@H](CCC(=O)O)NC1=O [S597] (Ac-SLEEEWAQIECEVYGRGCPSESFYDWFERQL-NH2; disulfide 11-18)
IR R14A
  IR activation (pY IR): fully activated
IR D707A
  IR activation (pY IR): fully activated
IR D496K
  IR activation (pY IR): fully activated
IR E697A
  IR activation (pY IR): fully activated
IR F497A
  IR activation (pY IR): fully activated
CAL33 [1]
  cell proliferation: did not promote
IR R14W
  IR activation (pY IR): fully activated
IR wild-type (WT); 293 FT cells expressing IR WT, 10 nM for 10 min
  IR activation (auto-phosphorylation of IR, pY IR): as efficiently as insulin
IR wild-type (WT); 293 FT cells expressing IR-A or IR-B, 10 min
  difference between the A and B isoforms of IR activation: no significant difference
MCF7
  cell proliferation: did not promote
C2C12 cells
  cell viability and growth: does not promote cell proliferation as efficiently as insulin
IR
  IR endocytosis / internalization: promoted IR internalization
IR F701A/F705A
  IR activation (pY IR): fully activated
CAL33 [2]
  IR signaling: failed to activate
[3]
  area under curve (AUC) for blood glucose during OGTT: No significant
